Where two headings read alike, the source gives them in different places.
Legend:
[1] = target: T1, NEK3 (Homo sapiens, UniProt P51956); test: Kinome profiler screen; type: biochemical; conditions: at 20,000 nM inhibitor; kinase activity remaining
T1 construct: purchased Millipore KinaseProfiler

[2] = target: T2, CDK3/cyclinE (Homo sapiens, UniProt Q00526); test: Kinome profiler screen; type: biochemical; conditions: at 20,000 nM inhibitor; kinase activity remaining
T2 construct: purchased Millipore KinaseProfiler

[3] = target: T3, EphA1 (Homo sapiens, UniProt P21709); test: Kinome profiler screen; type: biochemical; conditions: at 20,000 nM inhibitor; kinase activity remaining
T3 construct: purchased Millipore KinaseProfiler

[4] = target: T4, PI3K-C2α (Homo sapiens, UniProt O00443); test: Kinome profiler screen; type: biochemical; conditions: for activity at 20 µM: at 20,000 nM inhibitor, kinase activity remaining
T4 construct: purchased Millipore

[5] = target: T5, EGFR(T790M) (Homo sapiens, UniProt P00533, T790M); test: Kinome profiler screen; type: biochemical; conditions: at 20,000 nM inhibitor; kinase activity remaining
T5 construct: purchased Millipore KinaseProfiler

[6] = target: T6, IGF-1R (Homo sapiens, UniProt P08069); test: Kinome profiler screen; type: biochemical; conditions: at 20,000 nM inhibitor; kinase activity remaining
T6 construct: purchased Millipore KinaseProfiler

[7] = target: T7, CK1γ2 (Homo sapiens, UniProt P78368); test: Kinome profiler screen; type: biochemical; conditions: at 20,000 nM inhibitor; kinase activity remaining
T7 construct: purchased Millipore KinaseProfiler

[8] = target: T8, Lyn(m) (Mus musculus, UniProt P25911); test: Kinome profiler screen; type: biochemical; conditions: at 20,000 nM inhibitor; kinase activity remaining
T8 construct: purchased Millipore KinaseProfiler

[9] = target: T9, Aurora-A (Homo sapiens, UniProt O14965); test: Kinome profiler screen; type: biochemical; conditions: at 20,000 nM inhibitor; kinase activity remaining
T9 construct: purchased Millipore KinaseProfiler

[10] = target: T10, CHK2(R145W) (Homo sapiens, UniProt O96017, R145W); test: Kinome profiler screen; type: biochemical; conditions: at 20,000 nM inhibitor; kinase activity remaining
T10 construct: purchased Millipore KinaseProfiler

[11] = target: T11, CHK2(I157T) (Homo sapiens, UniProt O96017, I157T); test: Kinome profiler screen; type: biochemical; conditions: at 20,000 nM inhibitor; kinase activity remaining
T11 construct: purchased Millipore KinaseProfiler

[12] = target: T12, IR, activated (Homo sapiens, UniProt P06213); test: Kinome profiler screen; type: biochemical; conditions: at 20,000 nM inhibitor; kinase activity remaining
T12 construct: purchased Millipore KinaseProfiler

[13] = target: T13, CDK9/cyclin T1 (Homo sapiens, UniProt P50750); test: Kinome profiler screen; type: biochemical; conditions: at 20,000 nM inhibitor; kinase activity remaining
T13 construct: purchased Millipore KinaseProfiler

[14] = tested on: CA3-CA1 long-term potentiation; test: LTP in Aβ42-treated hippocampal brain slices; parameters: species or system mice; conditions: 10 µM compound, 200 nM Aβ42
[15] = target: T14, Src(1-530) (Homo sapiens, UniProt P12931); test: Kinome profiler screen; type: biochemical; conditions: at 20,000 nM inhibitor; kinase activity remaining
T14 construct: purchased Millipore KinaseProfiler

[16] = target: T15, CDK2/cyclinA (Homo sapiens, UniProt P24941); test: Kinome profiler screen; type: biochemical; conditions: at 20,000 nM inhibitor; kinase activity remaining
T15 construct: purchased Millipore KinaseProfiler

[17] = target: T16, PIP5K1α (Homo sapiens, UniProt Q99755); test: Kinome profiler screen; type: biochemical; conditions: at 20,000 nM inhibitor; kinase activity remaining
T16 construct: purchased Millipore KinaseProfiler

[18] = target: T17, FGFR1 (Homo sapiens, UniProt P11362); test: Kinome profiler screen; type: biochemical; conditions: at 20,000 nM inhibitor; kinase activity remaining
T17 construct: purchased Millipore KinaseProfiler

[19] = target: T18, PAR-1Bα (Homo sapiens, UniProt Q7KZI7); test: Kinome profiler screen; type: biochemical; conditions: at 20,000 nM inhibitor; kinase activity remaining
T18 construct: purchased Millipore KinaseProfiler

[20] = target: T19, PKCα (Homo sapiens, UniProt P17252); test: Kinome profiler screen; type: biochemical; conditions: at 20,000 nM inhibitor; kinase activity remaining
T19 construct: purchased Millipore KinaseProfiler

[21] = target: T20, TBK1 (Homo sapiens, UniProt Q9UHD2); test: Kinome profiler screen; type: biochemical; conditions: at 20,000 nM inhibitor; kinase activity remaining
T20 construct: purchased Millipore KinaseProfiler

[22] = target: T21, CDK5/p35 (Homo sapiens, UniProt Q00535); test: Kinome profiler screen; type: biochemical; conditions: at 20,000 nM inhibitor; kinase activity remaining
T21 construct: purchased Millipore KinaseProfiler

[23] = target: T22, Tie2(Y897S) (Homo sapiens, UniProt Q02763, Y897S); test: Kinome profiler screen; type: biochemical; conditions: at 20,000 nM inhibitor; kinase activity remaining
T22 construct: purchased Millipore KinaseProfiler

[24] = target: T23, PI3 Kinase (p110α (E542K)/p85α) (Homo sapiens, UniProt P42336, E542K); test: Kinome profiler screen; type: biochemical; conditions: at 20,000 nM inhibitor; kinase activity remaining
T23 construct: purchased Millipore KinaseProfiler

[25] = tested on: visual, motor and motivation deficits; test: Visible platform test; type: in vivo, C57BL/6J mice; conditions: control test
[26] = target: T24, Rsk2 (Homo sapiens, UniProt P51812); test: Kinome profiler screen; type: biochemical; conditions: at 20,000 nM inhibitor; kinase activity remaining
T24 construct: purchased Millipore KinaseProfiler

[27] = target: T25, Fms(Y969C) (Homo sapiens, UniProt P07333, Y969C); test: Kinome profiler screen; type: biochemical; conditions: at 20,000 nM inhibitor; kinase activity remaining
T25 construct: purchased Millipore KinaseProfiler

[28] = target: T26, Rse (Homo sapiens, UniProt Q06418); test: Kinome profiler screen; type: biochemical; conditions: at 20,000 nM inhibitor; kinase activity remaining
T26 construct: purchased Millipore KinaseProfiler

[29] = target: T27, Fms (Homo sapiens, UniProt P07333); test: Kinome profiler screen; type: biochemical; conditions: at 20,000 nM inhibitor; kinase activity remaining
T27 construct: purchased Millipore KinaseProfiler

[30] = target: T28, PKD2 (Homo sapiens, UniProt Q9BZL6); test: Kinome profiler screen; type: biochemical; conditions: at 20,000 nM inhibitor; kinase activity remaining
T28 construct: purchased Millipore KinaseProfiler

[31] = target: T29, GRK5 (Homo sapiens, UniProt P34947); test: Kinome profiler screen; type: biochemical
T29 construct: purchased Millipore KinaseProfiler

[32] = target: T30, TAO2 (Homo sapiens, UniProt Q9UL54); test: Kinome profiler screen; type: biochemical; conditions: at 20,000 nM inhibitor; kinase activity remaining
T30 construct: purchased Millipore KinaseProfiler

[33] = target: T31, MEK1 (Homo sapiens, UniProt Q02750); test: Kinome profiler screen; type: biochemical; conditions: at 20,000 nM inhibitor; kinase activity remaining
T31 construct: purchased Millipore KinaseProfiler

[34] = target: T32, Flt3(D835Y) (Homo sapiens, UniProt P36888, D835Y); test: Kinome profiler screen; type: biochemical; conditions: at 20,000 nM inhibitor; kinase activity remaining
T32 construct: purchased Millipore KinaseProfiler

[35] = target: T33, DRAK1 (Homo sapiens, UniProt Q9UEE5); test: Kinome profiler screen; type: biochemical; conditions: at 20,000 nM inhibitor; kinase activity remaining
T33 construct: purchased Millipore KinaseProfiler

[36] = target: T34, PKBα (Homo sapiens, UniProt P31749); test: Kinome profiler screen; type: biochemical; conditions: at 20,000 nM inhibitor; kinase activity remaining
T34 construct: purchased Millipore KinaseProfiler

[37] = target: T35, Ros (Homo sapiens, UniProt P08922); test: Kinome profiler screen; type: biochemical; conditions: at 20,000 nM inhibitor; kinase activity remaining
T35 construct: purchased Millipore KinaseProfiler

[38] = target: T36, Met(Y1248C) (Homo sapiens, UniProt P08581, Y1230C); test: Kinome profiler screen; type: biochemical; conditions: at 20,000 nM inhibitor; kinase activity remaining
T36 construct: purchased Millipore KinaseProfiler

[39] = target: T37, NEK2 (Homo sapiens, UniProt P51955); test: Kinome profiler screen; type: biochemical; conditions: at 20,000 nM inhibitor; kinase activity remaining
T37 construct: purchased Millipore KinaseProfiler

[40] = target: T38, PAK4 (Homo sapiens, UniProt O96013); test: Kinome profiler screen; type: biochemical; conditions: at 20,000 nM inhibitor; kinase activity remaining
T38 construct: purchased Millipore KinaseProfiler

[41] = target: T39, PI3 Kinase (p110α (E545K)/p85α)(m) (Mus musculus, UniProt P42337, E545K); test: Kinome profiler screen; type: biochemical; conditions: at 20,000 nM inhibitor; kinase activity remaining
T39 construct: purchased Millipore KinaseProfiler

[42] = target: T40, SIK (Homo sapiens, UniProt P57059); test: Kinome profiler screen; type: biochemical; conditions: at 20,000 nM inhibitor; kinase activity remaining
T40 construct: purchased Millipore KinaseProfiler

T4 sequence (O00443 whole entry): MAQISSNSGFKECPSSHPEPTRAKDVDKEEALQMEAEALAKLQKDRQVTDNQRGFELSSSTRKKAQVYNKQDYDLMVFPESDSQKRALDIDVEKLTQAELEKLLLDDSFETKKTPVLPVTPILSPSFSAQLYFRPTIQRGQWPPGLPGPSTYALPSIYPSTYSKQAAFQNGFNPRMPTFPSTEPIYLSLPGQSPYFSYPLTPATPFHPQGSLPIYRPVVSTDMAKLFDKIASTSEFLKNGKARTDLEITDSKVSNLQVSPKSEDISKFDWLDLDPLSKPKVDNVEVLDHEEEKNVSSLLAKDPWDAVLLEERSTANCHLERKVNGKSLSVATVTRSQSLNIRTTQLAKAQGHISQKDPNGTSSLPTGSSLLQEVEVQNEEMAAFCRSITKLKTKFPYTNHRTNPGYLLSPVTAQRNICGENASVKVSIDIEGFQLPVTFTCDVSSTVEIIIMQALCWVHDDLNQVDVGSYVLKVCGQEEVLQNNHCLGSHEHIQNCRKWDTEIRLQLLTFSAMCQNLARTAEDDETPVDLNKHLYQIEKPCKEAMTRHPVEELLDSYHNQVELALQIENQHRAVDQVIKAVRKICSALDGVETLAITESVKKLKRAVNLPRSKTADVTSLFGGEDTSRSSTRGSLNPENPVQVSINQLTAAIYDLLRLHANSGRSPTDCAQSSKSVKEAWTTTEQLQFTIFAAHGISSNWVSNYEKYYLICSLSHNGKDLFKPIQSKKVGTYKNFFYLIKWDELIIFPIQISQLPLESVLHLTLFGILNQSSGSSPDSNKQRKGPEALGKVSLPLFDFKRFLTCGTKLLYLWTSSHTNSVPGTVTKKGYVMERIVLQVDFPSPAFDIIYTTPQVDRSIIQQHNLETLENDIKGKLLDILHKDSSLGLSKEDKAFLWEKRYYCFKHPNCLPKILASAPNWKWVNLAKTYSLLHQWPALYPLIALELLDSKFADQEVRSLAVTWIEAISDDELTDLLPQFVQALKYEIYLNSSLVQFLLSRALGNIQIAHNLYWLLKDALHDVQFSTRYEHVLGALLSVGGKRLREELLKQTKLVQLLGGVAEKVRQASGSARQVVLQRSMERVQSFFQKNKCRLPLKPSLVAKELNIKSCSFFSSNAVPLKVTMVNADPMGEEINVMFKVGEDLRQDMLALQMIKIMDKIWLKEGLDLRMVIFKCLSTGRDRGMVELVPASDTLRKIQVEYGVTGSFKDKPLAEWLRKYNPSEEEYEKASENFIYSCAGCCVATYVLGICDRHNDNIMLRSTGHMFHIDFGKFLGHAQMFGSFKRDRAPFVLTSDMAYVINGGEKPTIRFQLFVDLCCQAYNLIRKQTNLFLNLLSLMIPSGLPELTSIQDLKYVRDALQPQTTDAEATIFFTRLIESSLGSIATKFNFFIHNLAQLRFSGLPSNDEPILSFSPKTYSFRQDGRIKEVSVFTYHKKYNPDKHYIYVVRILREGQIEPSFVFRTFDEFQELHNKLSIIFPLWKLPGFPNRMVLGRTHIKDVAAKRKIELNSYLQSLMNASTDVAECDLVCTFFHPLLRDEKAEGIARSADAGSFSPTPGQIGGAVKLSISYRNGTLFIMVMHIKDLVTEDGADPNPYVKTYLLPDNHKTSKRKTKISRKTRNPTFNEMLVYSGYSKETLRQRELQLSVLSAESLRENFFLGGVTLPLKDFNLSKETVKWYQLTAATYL
T21 sequence (Q00535 whole entry): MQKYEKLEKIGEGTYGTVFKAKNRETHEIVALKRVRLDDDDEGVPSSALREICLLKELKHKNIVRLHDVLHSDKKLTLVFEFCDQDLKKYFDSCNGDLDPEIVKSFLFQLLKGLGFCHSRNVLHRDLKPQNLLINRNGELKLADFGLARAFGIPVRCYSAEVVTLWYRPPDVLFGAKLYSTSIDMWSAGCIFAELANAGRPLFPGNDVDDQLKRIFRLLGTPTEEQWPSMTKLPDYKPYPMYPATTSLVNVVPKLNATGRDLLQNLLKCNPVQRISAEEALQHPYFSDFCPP
T21 sequence (Q15078 whole entry partner): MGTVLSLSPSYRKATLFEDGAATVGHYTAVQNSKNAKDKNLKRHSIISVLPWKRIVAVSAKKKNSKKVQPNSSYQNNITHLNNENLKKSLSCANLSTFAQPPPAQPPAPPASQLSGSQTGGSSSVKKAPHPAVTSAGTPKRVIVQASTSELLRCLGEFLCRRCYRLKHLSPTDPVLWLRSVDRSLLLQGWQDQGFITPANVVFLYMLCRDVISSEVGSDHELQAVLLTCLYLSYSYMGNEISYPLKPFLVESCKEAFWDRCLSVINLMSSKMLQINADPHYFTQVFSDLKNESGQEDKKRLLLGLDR
T7 sequence (P78368 whole entry): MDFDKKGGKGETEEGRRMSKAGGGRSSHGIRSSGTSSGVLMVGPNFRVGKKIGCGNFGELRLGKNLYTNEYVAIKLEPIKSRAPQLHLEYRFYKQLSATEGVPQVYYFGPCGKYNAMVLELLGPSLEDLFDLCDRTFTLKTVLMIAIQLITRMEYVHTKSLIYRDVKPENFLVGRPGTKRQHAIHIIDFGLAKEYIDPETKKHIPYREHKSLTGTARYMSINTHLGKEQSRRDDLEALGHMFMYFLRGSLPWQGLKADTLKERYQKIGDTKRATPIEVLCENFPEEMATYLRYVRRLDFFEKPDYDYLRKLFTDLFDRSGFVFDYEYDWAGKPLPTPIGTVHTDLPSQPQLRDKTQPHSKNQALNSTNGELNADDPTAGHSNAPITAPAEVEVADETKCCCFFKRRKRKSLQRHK
T12 sequence (P06213 28-1382): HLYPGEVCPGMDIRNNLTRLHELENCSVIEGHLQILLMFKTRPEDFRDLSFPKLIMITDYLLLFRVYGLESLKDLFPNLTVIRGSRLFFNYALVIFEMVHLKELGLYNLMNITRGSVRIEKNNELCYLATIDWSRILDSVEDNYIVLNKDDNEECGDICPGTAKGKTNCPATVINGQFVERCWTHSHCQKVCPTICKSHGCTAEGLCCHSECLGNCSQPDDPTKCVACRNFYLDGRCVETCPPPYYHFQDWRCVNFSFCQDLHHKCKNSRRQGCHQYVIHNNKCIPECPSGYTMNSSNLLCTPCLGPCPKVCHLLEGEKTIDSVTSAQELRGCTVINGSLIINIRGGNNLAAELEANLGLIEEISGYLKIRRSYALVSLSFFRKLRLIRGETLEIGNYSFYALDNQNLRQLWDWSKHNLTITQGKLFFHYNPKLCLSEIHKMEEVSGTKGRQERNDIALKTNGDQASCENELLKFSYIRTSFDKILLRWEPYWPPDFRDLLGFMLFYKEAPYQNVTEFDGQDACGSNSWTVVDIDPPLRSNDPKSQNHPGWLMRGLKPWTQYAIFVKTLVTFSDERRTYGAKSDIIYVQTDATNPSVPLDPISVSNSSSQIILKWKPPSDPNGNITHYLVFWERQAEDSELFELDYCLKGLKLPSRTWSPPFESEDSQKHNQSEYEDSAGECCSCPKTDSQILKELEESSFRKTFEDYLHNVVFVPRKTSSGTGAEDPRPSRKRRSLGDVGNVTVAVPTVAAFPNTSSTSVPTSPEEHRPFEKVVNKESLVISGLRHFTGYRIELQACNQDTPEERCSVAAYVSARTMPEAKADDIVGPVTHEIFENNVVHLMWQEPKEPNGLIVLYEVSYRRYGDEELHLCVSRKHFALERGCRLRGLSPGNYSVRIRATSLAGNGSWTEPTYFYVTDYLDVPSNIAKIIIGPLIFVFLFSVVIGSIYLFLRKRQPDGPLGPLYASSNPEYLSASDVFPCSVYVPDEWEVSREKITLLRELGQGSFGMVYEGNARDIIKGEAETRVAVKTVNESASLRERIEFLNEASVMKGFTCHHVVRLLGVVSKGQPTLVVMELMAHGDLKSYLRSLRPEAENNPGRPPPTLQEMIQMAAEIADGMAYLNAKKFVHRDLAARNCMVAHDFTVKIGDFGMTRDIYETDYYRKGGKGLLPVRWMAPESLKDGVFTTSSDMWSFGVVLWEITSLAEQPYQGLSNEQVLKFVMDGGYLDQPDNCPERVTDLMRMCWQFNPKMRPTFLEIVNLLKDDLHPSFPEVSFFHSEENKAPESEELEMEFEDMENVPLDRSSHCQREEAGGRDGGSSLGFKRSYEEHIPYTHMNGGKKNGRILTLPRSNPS
T17 sequence (P11362 22-822): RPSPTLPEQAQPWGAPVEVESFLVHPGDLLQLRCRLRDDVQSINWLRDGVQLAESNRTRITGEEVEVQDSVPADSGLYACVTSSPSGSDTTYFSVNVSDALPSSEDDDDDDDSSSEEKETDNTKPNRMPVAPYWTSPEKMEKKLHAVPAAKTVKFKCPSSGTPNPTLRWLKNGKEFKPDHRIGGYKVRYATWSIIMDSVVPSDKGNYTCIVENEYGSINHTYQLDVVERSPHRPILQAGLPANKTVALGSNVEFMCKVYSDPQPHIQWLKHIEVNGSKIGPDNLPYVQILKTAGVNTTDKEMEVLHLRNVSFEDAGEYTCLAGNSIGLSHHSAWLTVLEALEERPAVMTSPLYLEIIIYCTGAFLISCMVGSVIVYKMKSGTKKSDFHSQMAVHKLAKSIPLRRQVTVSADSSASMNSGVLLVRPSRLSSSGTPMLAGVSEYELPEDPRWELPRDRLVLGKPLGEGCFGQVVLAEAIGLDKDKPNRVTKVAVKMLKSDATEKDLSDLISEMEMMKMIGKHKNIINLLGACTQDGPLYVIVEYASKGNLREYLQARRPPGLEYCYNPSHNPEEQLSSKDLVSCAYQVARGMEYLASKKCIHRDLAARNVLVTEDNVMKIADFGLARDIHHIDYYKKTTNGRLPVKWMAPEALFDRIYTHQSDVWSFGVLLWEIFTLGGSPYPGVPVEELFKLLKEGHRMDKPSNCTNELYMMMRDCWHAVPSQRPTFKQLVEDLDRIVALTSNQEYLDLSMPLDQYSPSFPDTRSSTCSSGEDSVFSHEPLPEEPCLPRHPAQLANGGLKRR

CN(C)c1cc(-c2ccncc2)c(-c2ccc3ccccc3c2)nn1 [MW108, N, N-dimethyl-6-(naphthalen-2-yl)-5-(pyridin-4-yl)pyridazin-3-amine]
activity at 20 µM [1]: 98% | activity at 20 µM [2]: 91% | activity at 20 µM [3]: 97% | IC50 [4]: > 30 µM | activity at 20 µM [4]: 29% | activity at 20 µM [5]: 68% | activity at 20 µM [6]: 137% | activity at 20 µM [7]: 91% | activity at 20 µM [8]: 97% | activity at 20 µM [9]: 118% | activity at 20 µM [10]: 97% | activity at 20 µM [11]: 101% | activity at 20 µM [12]: 103% | activity at 20 µM [13]: 95% | LTP deficit in Aβ42-treated slices [14]: ameliorated the LTP deficit | activity at 20 µM [15]: 101% | activity at 20 µM [16]: 79% | activity at 20 µM [17]: 104% | activity at 20 µM [18]: 93% | activity at 20 µM [19]: 97% | activity at 20 µM [20]: 92% | activity at 20 µM [21]: 96% | activity at 20 µM [22]: 99% | activity at 20 µM [23]: 95% | activity at 20 µM [24]: 99% | visible platform test, speed and time to the platform [25]: No difference was detected between groups | activity at 20 µM [26]: 92% | activity at 20 µM [27]: 100% | activity at 20 µM [28]: 117% | activity at 20 µM [29]: 98% | activity at 20 µM [30]: 78% | activity at 20 µM [31]: 110% | activity at 20 µM [32]: 81% | activity at 20 µM [33]: 130% | activity at 20 µM [34]: 90% | activity at 20 µM [35]: 86% | activity at 20 µM [36]: 99% | activity at 20 µM [37]: 87% | activity at 20 µM [38]: 84% | activity at 20 µM [39]: 96% | activity at 20 µM [40]: 104% | activity at 20 µM [41]: 99% | activity at 20 µM [42]: 91%

CN(C)c1cc(-c2ccncc2)c(-c2cccc3ccccc23)nn1 [MW181, N,N-dimethyl-6-(naphthalen-1-yl)-5-(pyridin-4-yl)pyridazin-3-amine]
activity at 20 µM [1]: 116% | activity at 20 µM [2]: 98% | activity at 20 µM [3]: 76% | activity at 20 µM [4]: 99% | activity at 20 µM [5]: 105% | activity at 20 µM [6]: 121% | activity at 20 µM [7]: 96% | activity at 20 µM [8]: 90% | activity at 20 µM [9]: 113% | activity at 20 µM [10]: 91% | activity at 20 µM [11]: 100% | activity at 20 µM [12]: 100% | activity at 20 µM [13]: 104% | LTP deficit in Aβ42-treated slices [14]: ameliorated the LTP deficit | activity at 20 µM [15]: 98% | activity at 20 µM [16]: 92% | activity at 20 µM [17]: 102% | activity at 20 µM [18]: 103% | activity at 20 µM [19]: 106% | activity at 20 µM [20]: 86% | activity at 20 µM [21]: 98% | activity at 20 µM [22]: 95% | activity at 20 µM [23]: 95% | activity at 20 µM [24]: 100% | visible platform test, speed and time to the platform [25]: No difference was detected between groups | activity at 20 µM [26]: 90% | activity at 20 µM [27]: 91% | activity at 20 µM [28]: 109% | activity at 20 µM [29]: 85% | activity at 20 µM [30]: 78% | activity at 20 µM ([31]; at 20,000 nM inhibitor, kinase activity remaining, read-out: % Activity): 100% | activity at 20 µM [32]: 94% | activity at 20 µM [33]: 105% | activity at 20 µM [34]: 100% | activity at 20 µM [35]: 113% | activity at 20 µM [36]: 90% | activity at 20 µM [37]: 110% | activity at 20 µM [38]: 100% | activity at 20 µM [39]: 94% | activity at 20 µM [40]: 109% | activity at 20 µM [41]: 99% | activity at 20 µM [42]: 92%

Reference: publication PMC3694096, “Development of Novel In Vivo Chemical Probes to Address CNS Protein Kinase Involvement in Synaptic Dysfunction” (PLoS ONE, 2013)
